The record followed here is patent US20250179061A1 (SIRONAX LTD., priority 2022, published 2025).

Like-named read-outs stand apart in the source and are kept apart here.

The assay concerns HT-29 cells. The assay can be described thus: HT-29 necroptosis cell viability assay (TNF-α/SMAC mimetic/zVAD-FMK, CellTiter-Glo). It counts as cell-based. The note with it: Homo sapiens. The gist of the method: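 HT-29 cells (~5,000/well, overnight) in FBS-free McCoy's 5A with TNF-α 10 ng/ml, SMAC mimetic 6 μM and zVAD-FMK 10 μM plus 10-point 1:3 compound titration, 20 h at 37°C. ATP measured by CellTiter-Glo luminescence; IC50 as geometric mean of duplicates.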
A general note: In ATP-based viability assays light output follows the ATP content of the culture.

Setting [1] is: HT-29 cells stimulated with TNF-α (10 ng/ml), SMAC mimetic (6 μM) and zVAD-FMK (10 μM), 20 hours, CellTiter-Glo ATP luminescence, geometric mean IC50 from 10 points, read-out: Activity.

As for `Cc1nc(C(N)=O)oc1Oc1ccc(-n2nc3n(c2=O)[C@H](c2c(F)cccc2F)CC3)cc1F` (single isomer, unassigned) [Example 701], under setting [1], the IC50 was less than 100 nM.
Same read-out and setting: the same measure for `Cc1nc(N2CC(C(C)(C)N)C2)sc1Oc1ccc(-n2ncn(Cc3c(F)cccc3F)c2=O)cc1` [Example 68, 2-(4-((2-(3-(2-aminopropan-2-yl)azetidin-1-yl)-4-methylthiazol-5-yl)oxy)phenyl)-4-(2,6-difluorobenzyl)-2,4-dihydro-3H-1,2,4-triazol-3-one]: less than 100 nM.
As for `O=c1n(Cc2c(F)cccc2F)cnn1-c1ccc(Oc2ccnc(Cl)c2)cc1` [Example 662, 2-(4-((2-chloropyridin-4-yl)oxy)phenyl)-4-(2,6-difluorobenzyl)-2,4-dihydro-3H-1,2,4-triazol-3-one], the IC50 (HT-29, HT-29 cells, necroptosis induced by TNF-α/SMAC mimetic/zVAD-FMK, CellTiter-Glo, read-out: Activity (IC50 class)) is 100 to 1000 nM.
